For 20 compounds, IC50 results are on record in patent US10407414B2, “Mannose derivatives for treating bacterial infections” (priority 2015, dated 2019).

This assay relates to bacterial strain LF82 binding to the glycoprotein BSA-(Mannose)3 (FimH antagonists). The experiment in a line: Bacterial Binding Assay (BBA). In kind it is cell-based, Escherichia coli. Particulars: read-out: Bacterial Binding Assay IC50 ± SEM. An excerpt:
The purpose of the Bacterial Binding Assay (BBA) is to determine the inhibition activity of selective FimH antagonists on the bacterial strain LF82 binding to the glycoprotein BSA-(Mannose)3.
Below is a list of the Materials used to run the BBA are described below. • 1. LB broth: Supplier: Gibco, #10855 • 2. D-PBS: Supplier: Wisent, #311-425-CL • 3. LB agar plates • 4. 96-well black plate (high binding): Supplier: Costar, #3925 • 5. TopSeal™-A adhesive sealing films; Supplier PerkinElmer, #6005185 • 6. Carbonate-bicarbonate buffer pH 9.6 tablets, Supplier: Medicago, #09-8922-24 • 7. Water, Supplier: Gibco, #15230-162 • 8. Bovine serum albumin (BSA): Supplier: Sigma, #A-7888 • 9. (Man)3-BSA (α1-3, α1-6 Mannotriose-BSA, 1 mg), V-Labs, #NGP1336, lot# HGDX37-169-1 • 10. Tween 20: Supplier: Sigma, #P9416 • 11. Bright-Glo Luciferase Assay System: Supplier: Promega, #E2610 • 12. LF82/Luciferase strain: Invasive ability of an Escherichia coli strain isolated from the ileal mucosa of a patient with Crohn's disease. Boudeau J, Glasser A L, Masseret E, Joly B, Darfeuille-Michaud A, Infect Immun. 1999, 67(9), 4499-509
Solutions and buffers used to run the BBA are described below. • 1. 0.04M carbonate-bicarbonate buffer (coating buffer) • 2. 40 μg/mL BSA-(Man)3: Dissolve 1 mg of (Man)3-BSA in 25 mL of water. • 3. 4000 μg/mL BSA • 4. 40 μg/mL BSA • 5. 1 μg/mL BSA-(Man)3: 150 μL of 40 μg/mL BSA-(Man)3+5.85 mL of 40 μg/mL BSA • 6. 0.5 μg/mL BSA-(Man)3 in 0.02M carbonate-bicarbonate buffer. • 7. 20 μg/mL BSA in 0.02M carbonate-bicarbonate buffer • 8. Blocking buffer (2% BSA/DPBS): 1 g of BSA in 50 mL D-PBS • 9. 2× binding buffer (0.2% BSA/D-PBS): 5 mL of blocking buffer+45 mL D-PBS. • 10. Washing buffer (D-PBS/0.01% Tween 20): 10 μL of Tween 20 in 100 mL D-PBS. • 11. 1× Bright-Glo Luciferase substrate: Dilute 1:1 the Bright-Glo Luciferase Assay System with D-PBS
The experimental protocol used in this example to run the BBA is described below.
Overnight culture of LF82/Luciferase strain: Into two Falcon 50 mL tubes, add 20 mL of LB+20 μL of 50 mg/mL Kanamycin and inoculate with a loop from glycerol stock of the LF82/Luciferase strain. Incubate overnight at 37° C. with no shaking.
Glycoprotein coating of 96-well plates: Add 100 μL/well of 0.5-2 μg/mL BSA-(Man)3. 20 μg/mL BSA is used as the control background. Seal plate using an adhesive sealing film and incubate overnight at room temperature. Wash the 96-well plate three times with 150 μL/well of D-PBS, add 170 μL/well of blocking solution and incubate 45 min (minimum) at room temperature.
Preparation of bacterial suspension: Mix the two cultures tubes (40 mL) and perform a 1:10 dilution in LB (900 μl LB+100 μl culture. Measure optical density (OD) of the bacterial cultures. OD1 ˜5×10^8 cells/mL. Centrifuge LF82 culture for 20 min at 3500 rpm at room temperature. Re-suspend bacterial pellet in D-PBS and centrifuge again for 20 min at 3500 rpm. Re-suspend bacterial pellet in D-PBS to obtain a bacterial concentration of 2×10^9 bacteria/mL. Dilute 1/10 in D-PBS to obtain a final bacterial concentration of 2×10^8 bacteria/mL (=107 bacteria/50 μL). Perform 1/10 serial dilutions in LB of each bacterial suspension, plate 10 μL of dilutions on LB agar plates (final dilutions of 10^−7) and incubate overnight at 37° C. and count CFUs to determine the actual bacteria density in the assay.
Bacterial binding assay: Add 147 μL 2× binding buffer to compound plate (containing 3 μL of compound). After blocking step is performed (at least 45 min), wash plates three times with 200 μL/well of D-PBS. With a 100 μL multichannel manual pipettor, add 50 μL/well of compound diluted in 2× binding buffer. With a 100 μL multichannel manual pipettor, add 50 μL/well of bacterial suspension. Agitate at slow speed for 1 min and incubate 40-75 min at room temperature. Wash 5 times with 150 μL/well of washing buffer and then once with D-PBS. Add 100 μL/well of 1× Bright-Glo Luciferase substrate. […]

By IC50 is commonly meant the midpoint of a concentration-inhibition curve.

Consider `Cc1cc(=O)n(C)cc1-c1cc(C#C[C@H]2O[C@H](CO)[C@@H](O)[C@H](O)[C@@H]2O)c2[nH]ncc2c1` [Compound 76, 1,4-dimethyl-5-[7-[2-[(2R,3S,4R,5S,6R)-3,4,5-trihydroxy-6-(hydroxymethyl)tetrahydropyran-2-yl]ethynyl]-1H-indazol-5-yl]pyridin-2-one], for which the half-maximal inhibitory concentration (IC50) is 0.3 ± 0.09 nM.

Consider `Cc1cc(-c2cc(C#C[C@H]3O[C@H](CO)[C@@H](O)[C@H](O)[C@@H]3O)c3[nH]ncc3c2)ccn1` [Compound 84, (2R,3S,4R,5S,6R)-2-(hydroxymethyl)-6-[2-[5-(2-methyl-4-pyridyl)-1H-indazol-7-yl]ethynyl]tetrahydropyran-3,4,5-triol], for which the IC50 was 0.5 ± 0.2 nM.

For the compound `CNC(=O)c1ccc(F)c(-c2cc(C#C[C@H]3O[C@H](CO)[C@@H](O)[C@H](O)[C@@H]3O)c3[nH]ncc3c2)c1` [Compound 90, 4-fluoro-N-methyl-3-[7-[2-[(2R,3S,4R,5S,6R)-3,4,5-trihydroxy-6-(hydroxymethyl)tetrahydropyran-2-yl]ethynyl]-1H-indazol-5-yl]benzamide], the IC50 was found to be 3 nM.

`CCOc1cc(C)c(-c2cc(C#C[C@H]3O[C@H](CO)[C@@H](O)[C@H](O)[C@@H]3O)c3[nH]ncc3c2)cn1` [Compound 54, (2R,3S,4R,5S,6R)-2-[2-[5-(6-ethoxy-4-methyl-3-pyridyl)-1H-indazol-7-yl]ethynyl]-6-(hydroxymethyl)tetrahydropyran-3,4,5-triol]: the IC50 came to 0.4 ± 0.1 nM.

Regarding `CC(C)CNCC#Cc1cc(C#C[C@H]2O[C@H](CO)[C@@H](O)[C@H](O)[C@@H]2O)c2[nH]ncc2c1` [Compound 52, (2R,3S,4R,5S,6R)-2-(hydroxymethyl)-6-[2-[5-[3-(isobutylamino)prop-1-ynyl]-1H-indazol-7-yl]ethynyl]tetrahydropyran-3,4,5-triol], the IC50 came out at 22 ± 10 nM.

For the compound `Cc1cc(-c2cc(C#C[C@H]3O[C@H](CO)[C@@H](O)[C@H](O)[C@@H]3O)c3[nH]ncc3c2)c[nH]c1=O` [Compound 79, 3-methyl-5-[7-[2-[(2R,3S,4R,5S,6R)-3,4,5-trihydroxy-6-(hydroxymethyl)tetrahydropyran-2-yl]ethynyl]-1H-indazol-5-yl]-1H-pyridin-2-one], the IC50 is 0.4 ± 0.1 nM.

As to `Cn1cnc2ccc(-c3cc(C#C[C@H]4O[C@H](CO)[C@@H](O)[C@H](O)[C@@H]4O)c4[nH]ncc4c3)cc21` [Compound 33, (2R,3S,4R,5S,6R)-2-(hydroxymethyl)-6-[2-[5-(3-methylbenzimidazol-5-yl)-1H-indazol-7-yl]ethynyl]tetrahydropyran-3,4,5-triol], the IC50 worked out at 0.4 ± 0.05 nM.

For `Cc1cc(C#C[C@H]2O[C@H](CO)[C@@H](O)[C@H](O)[C@@H]2O)c2[nH]ccc2c1` [Compound 4, (2R,3S,4R,5S,6R)-2-(hydroxymethyl)-6-[2-(5-methyl-1H-indol-7-yl)ethynyl]tetrahydropyran-3,4,5-triol], the IC50 was 46 ± 12 nM.

Turning to `NS(=O)(=O)c1cccc(-c2cc(C#C[C@H]3O[C@H](CO)[C@@H](O)[C@H](O)[C@@H]3O)c3[nH]ncc3c2)c1` [Compound 41, 3-[7-[2-[(2R,3S,4R,5S,6R)-3,4,5-trihydroxy-6-(hydroxymethyl)tetrahydropyran-2-yl]ethynyl]-1H-indazol-5-yl]benzenesulfonamide], the IC50 came out at 0.4 ± 0.04 nM.

`CNC(=O)c1cc(-c2cc(C#C[C@H]3O[C@H](CO)[C@@H](O)[C@H](O)[C@@H]3O)c3[nH]ncc3c2)ccn1` [Compound 92, N-methyl-4-[7-[2-[(2R,3S,4R,5S,6R)-3,4,5-trihydroxy-6-(hydroxymethyl)tetrahydropyran-2-yl]ethynyl]-1H-indazol-5-yl]pyridine-2-carboxamide]: the IC50 was found to be 1 nM.

As for `CCCCc1cc(C#C[C@H]2O[C@H](CO)[C@@H](O)[C@H](O)[C@@H]2O)c2c(cnn2C)c1` [Compound 22, (2R,3S,4R,5S,6R)-2-[2-(5-butyl-1-methyl-indazol-7-yl)ethynyl]-6-(hydroxymethyl)tetrahydropyran-3,4,5-triol], the IC50 is 53 ± 4 nM.

In the case of `NC1(C#Cc2cc(C#C[C@H]3O[C@H](CO)[C@@H](O)[C@H](O)[C@@H]3O)c3[nH]ncc3c2)CCCCC1` [Compound 50], the IC50 turned out to be 9 ± 1 nM.

Consider `CCN(CC)S(=O)(=O)c1ccc(C)c(-c2cc(C#C[C@H]3O[C@H](CO)[C@@H](O)[C@H](O)[C@@H]3O)c3[nH]ncc3c2)c1` [Compound 93, N,N-diethyl-4-methyl-3-[7-[2-[(2R,3S,4R,5S,6R)-3,4,5-trihydroxy-6-(hydroxymethyl)tetrahydropyran-2-yl]ethynyl]-1H-indazol-5-yl]benzenesulfonamide], for which the IC50 amounted to 1 nM.

For `COc1ncc(C)cc1-c1cc(C#C[C@H]2O[C@H](CO)[C@@H](O)[C@H](O)[C@@H]2O)c2[nH]ncc2c1` [Compound 78, (2R,3S,4R,5S,6R)-2-(hydroxymethyl)-6-[2-[5-(2-methoxy-5-methyl-3-pyridyl)-1H-indazol-7-yl]ethynyl]tetrahydropyran-3,4,5-triol], the IC50 turned out to be 2 ± 0.6 nM.

As for `OC[C@H]1O[C@H](C#Cc2cc(Cl)cc3cn[nH]c23)[C@@H](O)[C@@H](O)[C@@H]1O` [Compound 6, (2R,3S,4R,5S,6R)-2-[2-(5-chloro-1H-indazol-7-yl)ethynyl]-6-(hydroxymethyl)tetrahydropyran-3,4,5-triol], the IC50 worked out at 24 ± 5 nM.

Turning to `OC[C@H]1O[C@H](C#Cc2cc(C#Cc3ccccc3)cc3cn[nH]c23)[C@@H](O)[C@@H](O)[C@@H]1O` [Compound 45, (2R,3S,4R,5S,6R)-2-(hydroxymethyl)-6-[2-[5-(2-phenylethynyl)-1H-indazol-7-yl]ethynyl]tetrahydropyran-3,4,5-triol], the IC50 was 15 ± 3 nM.

For the compound `CCCCn1ncc2c(C#C[C@H]3O[C@H](CO)[C@@H](O)[C@H](O)[C@@H]3O)cccc21` [Compound 21, (2R,3S,4R,5S,6R)-2-[2-(1-butylindazol-4-yl)ethynyl]-6-(hydroxymethyl)tetrahydropyran-3,4,5-triol], the IC50 came out at 22 ± 0.5 nM.

For the compound `NC(=O)c1cccc(-c2cc(C#C[C@H]3O[C@H](CO)[C@@H](O)[C@H](O)[C@@H]3O)c3[nH]ncc3c2)c1` [Compound 31, 3-[7-[2-[(2R,3S,4R,5S,6R)-3,4,5-trihydroxy-6-(hydroxymethyl)tetrahydropyran-2-yl]ethynyl]-1H-indazol-5-yl]benzamide], the IC50 amounted to 0.7 ± 0.01 nM.

On to `O=C1Cc2cccc(C#C[C@H]3O[C@H](CO)[C@@H](O)[C@H](O)[C@@H]3O)c2N1` [Compound 11, 7-[2-[(2R,3S,4R,5S,6R)-3,4,5-trihydroxy-6-(hydroxymethyl)tetrahydropyran-2-yl]ethynyl]indolin-2-one], for which the IC50 was determined as 190 ± 75 nM.

In the case of `CCCCc1cc(C#C[C@H]2O[C@H](CO)[C@@H](O)[C@H](O)[C@@H]2O)c2[nH]ncc2c1` [Compound 24, (2R,3S,4R,5S,6R)-2-[2-(5-butyl-1H-indazol-7-yl)ethynyl]-6-(hydroxymethyl)tetrahydropyran-3,4,5-triol], the IC50 came to 1 ± 0.2 nM.
